Reference: US6455593B1, “Method of dynamic retardation of cell cycle kinetics to potentiate cell damage” (priority 1995, dated 2002)
Where two headings read alike, the source gives them in different places.

How the values were obtained:
p. falciparum D6 = assay: Parasite growth by 3H-hypoxanthine uptake in infected erythrocytes; format: cell-based; settings: Plasmodium falciparum, D6, Erythrocyte, read-out: inhibitory concentrations (IC50), strain D6
U937 cells [1] = assay: Delayed proliferation assay (MTT 48 hr after washing)
Description: Microcultures treated with an agent or agents for a defined period (exactly as in Example 8) were washed. Seventy-five percent of the well volume was removed without disturbing the sedimented cells, and medium was added to yield a ⅕ dilution. In three additional washes and cell sedimentations, 50% of the medium was replaced such that the original concentration of agents was reduced to <5%. The metabolic mass of cells surviving or proliferating at 48 hr after the washings, including the untreated control cells, was then assayed by the MTT method (total elapsed time of 70 hours).
As an adjunct to the delayed proliferative assay, we utilized an “immediate plate” to quantitate the cell mass at the beginning of the experiment (N0=original cell mass). It required no more than a single column of microwells filled with 50 μl of growth medium each, and aliquots of cells in 50 μl identical to those transferred to the usual “test plate”. The immediate plate was incubated at 37° C. to complete the MTT assay for the same time as used for the test plate (i.e. 3 hr).
Taking the mean final cell mass at 70 hours as N, each data point represents a ratio of the mean cell mass of dThd-treated cells as fraction of N/N0. A ratio of N/N0=1 indicates no change in original cell mass (i.e. no growth of the targeted population). A ratio of N/N0>1 indicates overall growth of the targeted population. A ratio of N/N0<1 indicates overall population loss (cell killing).
Taking the mean final cell mass at 70 hours as N, positive percentages represent the % effective cytotoxicity (EC%) expressed as 1−N/N0 and converted to a percentage, in relation to concentration. Thus, EC obtained only for ratios of N/N0<1 (i.e. positive percentages).

U937 cells [2] = assay: Flow cytometric cell cycle analysis (propidium iodide); format: cell-based, human; settings: U937
Description: Flow cytometric analyses were performed with a Coulter Epics System (purchased from Coulter Corp, Hialeah, Fla.). Cells were disrupted in buffer with 0.1% Triton-X 100 (or 0.6 % NP-40), so that the nuclei could be stained with 0.05% propidium iodide (PI). See Shapiro N M, Practical Flow Cytometry, Man R Liss, NY (1988); Nicoletti I et al., J Immunol Methods 139:271-9 (1991). Analyses of 10,000 nuclei were performed with graduated concentrations of dThd at serial time points. Histograms of PI fluorescent emissions at 675±10 nm were used to discriminate cell cycle fractions of the target population. The proportion of cells in each phase of the cell cycle is represented by stack bars above the X-axis as a fraction of those cells with intact DNA structure. The fraction of cells with depleted DNA in each sample is represented below the X-axis as a percentage of the total cell number. Cells with depleted DNA are presumed apoptotic. Crompton S T et. al. Biophys. Biochem. Res. Comm. 183:532-537 (1992). Each stack bar in FIG. 5 represents the cell cycle distribution of a population sample of >10,000 cells, analyzed for each indicated dThd concentration at indicated treatment times.
Flow cytometric analyses were performed as in Example 2. The results are shown in plot A of FIG. 5 from Example 2.
The U937 cells were exposed to a range of concentrations below the IC40 and sampled for flow cytometry at intervals of 8, 16, and 24 hours. Flow cytometric analysis was performed as described in Example 2.

U937 cells [3] = assay: Bivariate flow cytometry, dUTP terminal transferase labelling of DNA strand breaks; format: cell-based, human
Description: In a more sophisticated use of flow cytometry, DNA strand breaks were detected in nuclei by means of terminal transferase and homopolymer tailing as described by Gorczyca W. et al., Cancer Res 53:1945-1951 (1993). Samples of 1×10^6 cells were fixed in 1% buffered formaldehyde at 0° C. for 5 minutes, washed with PBS, resuspended in 70% ethanol and stored at […] for 48 hours. Cells were rehydrated in PBS, then suspended in 100 μl of cacodylate buffer and 2.5 mM CoCI2 to prepare them for the terminal transferase reaction. Biotin-labelled 16-dUTP and terminal transferase (Boehringer Mannheim, GmbH) were added to provide the final concentration of […] and 500 units/ml, respectively, and reacted with the cells at 37° C. for 30 minutes. Cells were rinsed in PBS, resuspended in a 4×saline-citrate buffer with 0.1% triton X100, 5% (w/v) non-fat powdered milk and 2.5 μg/ml FITC-labelled avidin, Boehringer Mannheim, supra, and incubated at room temperature for 30 minutes. Excess avidin-FITC was removed by washing the cells with PBS containing 0.1% triton X-100. In the cells with DNA damage, biotin-labelled dUTP was localized by the avidin-FITC: avidin and biotin form a strong linkage and reveal the extent of dUTP homopolymer tailing.
The amount of DNA per cell reflects the cell cycle position of each cell.

[4] = test system: human malignant lymphoma cells (U937); assay: Clonogenic assay in methylcellulose; format: cell-based
Excerpt: Elimination of a targeted cell population by a cytotoxic agent or agent combinations can not be assured if cells with generative capacity survive. The clonogenic assay in soft agar or methylcellulose is a practical and useful means of determining long-term effects of cytotoxic agents on a malignant cell population, since malignant cells are often capable of growing and forming colonies in these media. The colony forming efficiency of any line or population of malignant cells must be established from the colony count in relationship to the inoculum number and varies over a wide range. […] (same protocol as Example 2A, Table 7). Methylcellulose (MC) solution 2.1-2.3% was obtained from Stem Cell Technologies in Vancouver, B.C. and made up in a series of sterile tubes: (a) 0.4 ml MC stock solution, (b) 50 μl of NuSerum, (c) 2×10^4 cells from the treated cell suspension from the 24-well plate (about 250 μl) and (d) complete growth medium to make a final volume of 1 ml (final cell density=about 2×10^4 cells). A syringe with 18 g. needle was used to transfer load 100 μl of each sample the final cell preparation to each of triplicate wells in a 96-well plate. Thus the final cell number was about 2,000 cells/well. Plates were examined daily for colony formation. At days 3-5, colonies were counted. and colonies were overlaid with MTT: 25 μl, incubated overnight at 37° C. and 100 μl of 4% formalin was added to aid visualization and photography. […] The effective cytotoxicity was calculated as 1−C/C0 where C=the number of colonies formed by a sample of treated cells and C0=the number of colonies formed by an equal sample of untreated cells.

[5] = Homo sapiens, U-937, 96 h, read-out: Maximum effective cytotoxicity (1-C/C0), clonogenic

C[C@@]1(CO)[C@H](O)CC[C@@]2(C)[C@H]1CC[C@H]1C[C@@H]3C[C@@]12CC[C@]3(O)CO [Aph, aphidicolin]
IC50 (p. falciparum D6; 24 hr after RBC infection, 3H-hypoxanthine uptake): 400 nM

CN[C@@H]1C[C@H]2O[C@@](C)([C@@H]1OC)n1c3ccccc3c3c4c(c5c6ccccc6n2c5c31)C(=O)NC4 [STSP, staurosporine]
Effective cytotoxicity (1-N/N0) (U937 cells [1]; 13 nM STSP in the presence of 0.5 mM dThd, 70 hours): about 85%
Effective cytotoxicity (1-N/N0) (U937 cells [1]; 25 nM STSP in the presence of 0.1 mM dThd, 70 hours): about 85%
Effect on cell cycle distribution (U937 cells [2]; 50 nM STSP, from 4 hours, shown at 8 hr and 24 hours): gradually accumulated in the G2 and M phases
dUTP labelling (DNA fragmentation) (U937 cells [3]; 4 hours of 0.2 mM dThd followed by 25 nM STSP for additional 7 hours): marked increase in the number of dUTP labelled cells
Emax at 0.02 µM [4, 5]: 40 to 60%
Effective cytotoxicity, clonogenic ([4]; optimal synergistic match of dThd and STSP, 96 hours): almost total cytotoxicity
IC50 (p. falciparum D6): 190 nM

Cc1cn([C@H]2C[C@H](O)[C@@H](CO)O2)c(=O)[nH]c1=O [dThd, deoxythymidine]
Effect on cell growth (U937 cells [1]; 0.1 mM dThd alone, FIG. 20): minimal effect on cell growth as compared to controls
Concentration for effective cytotoxicity of 40% (EC40) (U937 cells [1]; dThd alone, 70 hours): More than 3 mM
Effect on cell cycle progression (U937 cells [2]; 0.2 mM dThd): permitted continuous cell transit
Effect on cell cycle progression (U937 cells [2]; 3 mM dThd): arrested cell cycle progression at G1/S
dUTP labelling (DNA fragmentation) (U937 cells [3]; 3 mM dThd, 11 hours): appearance of cells with dUTP labelling, indicating DNA fragmentation
Emax at 100 µM [4, 5]: 40 to 60%
